Assay: Amount of clonazepam in blood, brain and skin after transdermal application (HPLC)
Details: rats
Procedure: In support of another embodiment of the present invention, a supporting experiment was conducted where the backs of 3 white male rats that weighed approximately 150 g. were shaved and the backs of the rats were shaved and washed with lukewarm water and approximately 25 cm^2 of the base of a transmembrane/transdermal penetration enhancer described in Example 14 was administered. The base contained 10 mg of clonazepam and after six hours from the time of the application, the rats were killed and blood, brain and skin were taken from the application area. The amount of clonazepam in the organs and tissues of the killed rats were identified by HPLC method.

[1] = base of Example 14 with 10 mg clonazepam on approx. 25 cm^2, six hours after application

SMILES: O=C1CN=C(c2ccccc2Cl)c2cc([N+](=O)[O-])ccc2N1 [clonazepam]
- amount of clonazepam in 1 cm^2 of the skin at the application area [1]: 0.04 ± 0.002 mg
- amount of clonazepam in 1 cm^3 of blood [1]: 0.043 ± 0.002 mg
- amount of clonazepam in 1 g of brain [1]: 0.016 ± 0.001 mg
- amount of penetrated/permeated clonazepam through 25 cm^2 application area (base of Example 14 with 10 mg clonazepam, during 6 hours): 60 % of applied amount
